Assay results: patent US9376396B2, “Acylaminocycloalkyl compounds suitable for treating disorders that respond to modulation of dopamine D3 receptor” (AbbVie Deutschland GmbH & Co. KG, priority 2012, dated 2016)

Legend:
[1] = biological target: T1, human dopamine D3 receptors (Homo sapiens, UniProt P35462); experiment: Receptor binding study, dopamine D3 receptor ([125I]-iodosulpride displacement); conditions: membranes of HEK-293 cells, 0.1 nM [125I]-iodosulpride, 25° C., 60 minutes
T1 construct: expressed in transfected cells; host or cells: HEK-293
Description: (§1) The substance to be tested was either dissolved in methanol/Chremophor® (BASF SE) or in dimethyl sulfoxide and then diluted with water to the desired concentration.
(§2) Each assay mixture was run in triplicate. • The incubation buffer contained 50 mM tris, 120 mM NaCl, 5 mM KCl, 2 mM CaCl2, 2 mM MgCl2 and 0.1% bovine serum albumin, 10 μM quinolone and 0.1% ascorbic acid (prepared fresh daily). […] Each assay mixture was run in triplicate. • The incubation buffer contained 50 mM tris, 120 mM NaCl, 5 mM KCl, 2 mM CaCl2, 2 mM MgCl2 and 0.1% bovine serum albumin. The buffer was adjusted to pH 7.4 with HCl. c) Measurement and Analysis: • After having been incubated at 25° C. for 60 minutes, the assay mixtures were filtered through a Whatman GF/B glass fiber filter under vacuum using a cell collecting device. The filters were transferred to scintillation viols using a filter transfer system. After 4 ml of Ultima Gold® (Packard) have been added, the samples were shaken for one hour and the radioactivity was then counted in a Beta-Counter (Packard, Tricarb 2000 or 2200CA).

[2] = biological target: T2, human dopamine D2L receptors (long isoform) (Homo sapiens, UniProt P14416); experiment: Receptor binding study, dopamine D2L receptor ([125I]iodospiperone displacement), selectivity vs D3; conditions: selectivity ratio, HEK-293 membranes
T2 construct: expressed in transfected cells; host or cells: HEK-293
Description: as §1, §2

[3] = Determination of the microsomal half-life / microsomal clearance, rat; assay type: in vitro ADME; conditions: rat liver microsomes, 0.5 μM test substance, 0.25 mg microsomal protein/ml, NADPH, 37° C.
Description: (§3) The metabolic stability of the compounds of the invention was determined in the following assay.
(§4) The test substances were incubated in a concentration of 0.5 μM as follows:
(§5) 0.5 μM test substance are preincubated together with liver microsomes from different species (from rat, human or other species) (0.25 mg of microsomal protein/ml) in 0.05 M potassium phosphate buffer of pH 7.4 in microtiter plates at 37° C. for 5 min. The reaction is started by adding NADPH (1 mg/mL). After 0, 5, 10, 15, 20 and 30 min, 50 μl aliquots are removed, and the reaction is immediately stopped and cooled with the same volume of acetonitrile. The samples are frozen until analyzed. The remaining concentration of undegraded test substance is determined by MSMS. The half-life (T½) is determined from the gradient of the signal of test substance/unit time plot, it being possible to calculate the half-life of the test substance, assuming first order kinetics, from the decrease in the concentration of the compound with time. The microsomal clearance (mCl) is calculated from mCl=ln 2/T½/(content of microsomal protein in mg/ml)×1000 [ml/min/mg] (modified from references: Di, The Society for Biomoleculur Screening, 2003, 453-462; Obach, DMD, 1999 vol 27. N 11, 1350-1359).

[4] = Determination of the microsomal half-life / microsomal clearance, human; assay type: in vitro ADME; conditions: human liver microsomes, 0.5 μM test substance, 0.25 mg microsomal protein/ml, NADPH, 37° C.
Description: as §3, §4, §5

T2 sequence (P14416 whole entry, canonical isoform): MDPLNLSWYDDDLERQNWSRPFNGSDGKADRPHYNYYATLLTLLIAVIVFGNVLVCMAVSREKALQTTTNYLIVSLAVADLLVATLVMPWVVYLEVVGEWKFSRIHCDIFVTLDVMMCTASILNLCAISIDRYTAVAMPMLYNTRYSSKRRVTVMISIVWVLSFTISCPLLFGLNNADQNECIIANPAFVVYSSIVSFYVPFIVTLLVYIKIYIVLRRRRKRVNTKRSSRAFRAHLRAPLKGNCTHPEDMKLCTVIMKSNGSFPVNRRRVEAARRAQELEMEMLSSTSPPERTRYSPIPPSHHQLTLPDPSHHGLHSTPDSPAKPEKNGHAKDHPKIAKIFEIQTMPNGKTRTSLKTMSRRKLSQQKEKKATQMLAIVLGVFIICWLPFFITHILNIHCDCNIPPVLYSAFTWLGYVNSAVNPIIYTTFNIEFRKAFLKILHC
T1 sequence (P35462 whole entry): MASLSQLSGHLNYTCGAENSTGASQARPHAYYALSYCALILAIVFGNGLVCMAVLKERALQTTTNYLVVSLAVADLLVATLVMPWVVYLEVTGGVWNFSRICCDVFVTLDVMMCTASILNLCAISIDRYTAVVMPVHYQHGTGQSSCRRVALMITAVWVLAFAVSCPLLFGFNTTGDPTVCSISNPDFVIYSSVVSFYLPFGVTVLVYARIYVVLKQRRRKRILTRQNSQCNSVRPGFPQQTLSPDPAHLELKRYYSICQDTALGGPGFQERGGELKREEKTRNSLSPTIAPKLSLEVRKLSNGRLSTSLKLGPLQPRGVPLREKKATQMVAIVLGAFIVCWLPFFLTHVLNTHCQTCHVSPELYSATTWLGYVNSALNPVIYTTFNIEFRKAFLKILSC

Row | Compound | Ki [1] [nM] | D2/D3 (Ki (D2L)/Ki (D3)) [2] | Rat mCl [3] | Human mCl [4]
1 | CC(=O)N[C@H]1CC[C@H](CCN2CCN(c3cc(CCOC(F)F)nc(C(C)(C)C)n3)[C@@H](C)C2)CC1 [Compound 32, trans-N-[4-[2-[(3S)-4-[2-tert-butyl-6-[2-(difluoromethoxy)ethyl]pyrimidin-4-yl]-3-methyl-piperazin-1-yl]ethyl]cyclohexyl]acetamide] | < 10 | +++ (+++>50) | ∘ (∘: >120 μl min^−1 mg^−1) | + (+: 20-120 μl min^−1 mg^−1)
2 | COCCc1cc(N2CCN(CC[C@H]3C[C@H](NC(C)=O)C3)CC2)nc(C(C)(C)C)n1.O=C(O)C(F)(F)F [Compound 4b, trans-N-[3-(2-{4-[2-tert-Butyl-6-(2-methoxy-ethyl)-pyrimidin-4-yl]-piperazin-1-yl}-ethyl)-cyclobutyl]-acetamide trifluoroacetate] | < 50 | +++ (+++>50) | + (+: 20-120 μl min^−1 mg^−1) | + (+: 20-120 μl min^−1 mg^−1)
3 | COCCc1cc(N2CCN(CC[C@@H]3CC[C@H](NC(C)=O)C3)CC2)nc(C(C)(C)C)n1 [Compound 16, cis-N-[(1S,3S)-3-[2-[4-[2-tert-butyl-6-(2-methoxyethyl)pyrimidin-4-yl]piperazin-1-yl]ethyl]cyclopentyl]acetamide] | < 50 | +++ (+++>50) | + (+: 20-120 μl min^−1 mg^−1) | + (+: 20-120 μl min^−1 mg^−1)
4 | CC(=O)N[C@H]1CC[C@H](CCN2CCN(c3cc(CO)nc(C(C)(C)C)n3)CC2)CC1 [Compound 22, trans-N-[4-[2-[4-[2-tert-butyl-6-(hydroxymethyl)pyrimidin-4-yl]piperazin-1-yl]ethyl]cyclohexyl]acetamide] | < 50 | +++ (+++>50) | + (+: 20-120 μl min^−1 mg^−1) | + (+: 20-120 μl min^−1 mg^−1)
5 | COCCc1cc(N2CCN(CCC3CC(NC=O)C3)CC2)nc(C(C)(C)C)n1.O=C(O)C(F)(F)F (centres unmarked) [Compound 12, N-[3-(2-{4-[2-tert-Butyl-6-(2-methoxy-ethyl)-pyrimidin-4-yl]-piperazin-1-yl}-ethyl)-cyclobutyl]-formamide trifluoroacetate] | < 10 | ++ (++>20) | + (+: 20-120 μl min^−1 mg^−1) | + (+: 20-120 μl min^−1 mg^−1)
6 | CC(=O)N[C@H]1CC[C@H](CCN2CCN(c3cc(CCO)nc(C(C)(C)C)n3)[C@@H](C)C2)CC1 [Compound 25, trans-N-[4-[2-[(3S)-4-[2-tert-butyl-6-(2-hydroxyethyl)pyrimidin-4-yl]-3-methyl-piperazin-1-yl]ethyl]cyclohexyl]acetamide] | < 10 | +++ (+++>50) | + (+: 20-120 μl min^−1 mg^−1) | + (+: 20-120 μl min^−1 mg^−1)
7 | COCCc1cc(N2CCN(CC[C@H]3CC[C@H](NC(C)=O)CC3)C[C@@H]2C)nc(C(C)(C)C)n1 [Compound 8, trans-N-[4-(2-{(3S)-4-[2-tert-Butyl-6-(2-methoxy-ethyl)-pyrimidin-4-yl]-3-methyl-piperazin-1-yl}-ethyl)-cyclohexyl]-acetamide] | < 10 | +++ (+++>50) | + (+: 20-120 μl min^−1 mg^−1) | + (+: 20-120 μl min^−1 mg^−1)
8 | trans-N-[4-[2-[4-(2-tert-butyl-6-tetrahydrofuran-3-yl-pyrimidin-4-yl)piperazin-1-yl]ethyl]cyclohexyl]formamide [Compound 27] | < 10 | +++ (+++>50) | + (+: 20-120 μl min^−1 mg^−1) | + (+: 20-120 μl min^−1 mg^−1)
9 | COCCc1cc(N2CCN(CC[C@@H]3CC[C@@H](NC(C)=O)C3)CC2)nc(C(C)(C)C)n1 [Compound 14, trans-N-[(1R,3S)-3-[2-[4-[2-tert-butyl-6-(2-methoxyethyl)pyrimidin-4-yl]piperazin-1-yl]ethyl]cyclopentyl]acetamide] | < 50 | +++ (+++>50) | + (+: 20-120 μl min^−1 mg^−1) | + (+: 20-120 μl min^−1 mg^−1)
10 | COCCc1cc(N2CCN(CC[C@H]3C[C@H](NC=O)C3)CC2)nc(C(C)(C)C)n1 [Compound 18, N-[trans-3-[2-[4-[2-tert-butyl-6-(2-methoxyethyl)pyrimidin-4-yl]piperazin-1-yl]ethyl]cyclobutyl]formamide] | < 50 | ++ (++>20) | ∘ (∘: >120 μl min^−1 mg^−1) | + (+: 20-120 μl min^−1 mg^−1)
11 | COCCc1cc(N2CCN(CC[C@H]3C[C@H](NC(C)=O)C3)C[C@@H]2C)nc(C(C)(C)C)n1 [Compound 30, trans-N-[3-[2-[(3S)-4-[2-tert-butyl-6-(2-methoxyethyl)pyrimidin-4-yl]-3-methyl-piperazin-1-yl]ethyl]cyclobutyl]acetamide] | < 50 | ++ (++>20) | + (+: 20-120 μl min^−1 mg^−1) | + (+: 20-120 μl min^−1 mg^−1)
12 | CC(=O)N[C@H]1CC[C@H](CCN2CCN(c3cc(CCO)nc(C(C)(C)C)n3)[C@H](C)C2)CC1 [Compound 29, trans-N-[4-[2-[(3R)-4-[2-tert-butyl-6-(2-hydroxyethyl)pyrimidin-4-yl]-3-methyl-piperazin-1-yl]ethyl]cyclohexyl]acetamide] | < 50 | +++ (+++>50) | + (+: 20-120 μl min^−1 mg^−1) | + (+: 20-120 μl min^−1 mg^−1)
13 | COCCc1cc(N2CCN(CC[C@H]3C[C@@H](NC=O)C3)CC2)nc(C(C)(C)C)n1 [Compound 17, N-[cis-3-[2-[4-[2-tert-butyl-6-(2-methoxyethyl)pyrimidin-4-yl]piperazin-1-yl]ethyl]cyclobutyl]formamide] | < 50 | ++ (++>20) | + (+: 20-120 μl min^−1 mg^−1) | + (+: 20-120 μl min^−1 mg^−1)
14 | COCCc1cc(N2CCN(CC[C@H]3CC[C@H](NC(C)=O)C3)CC2)nc(C(C)(C)C)n1 [Compound 15, trans-N-[(1S,3R)-3-[2-[4-[2-tert-butyl-6-(2-methoxyethyl)pyrimidin-4-yl]piperazin-1-yl]ethyl]cyclopentyl]acetamide] | < 10 | +++ (+++>50) | + (+: 20-120 μl min^−1 mg^−1) | + (+: 20-120 μl min^−1 mg^−1)
15 | COCCc1cc(N2CCN(CC[C@H]3CC[C@H](NC(C)=O)CC3)[C@H](C)C2)nc(C(C)(C)C)n1 [Compound 5, trans-N-[4-(2-{(2R)-4-[2-tert-Butyl-6-(2-methoxy-ethyl)-pyrimidin-4-yl]-2-methyl-piperazin-1-yl}-ethyl)-cyclohexyl]-acetamide] | < 50 | +++ (+++>50) | + (+: 20-120 μl min^−1 mg^−1) | + (+: 20-120 μl min^−1 mg^−1)
16 | COCCc1cc(N2CCN(CCC3CC(NC=O)C3)C[C@@H]2C)nc(C(C)(C)C)n1 (stereo partly drawn) [Compound 28, N-[3-[2-[(3S)-4-[2-tert-butyl-6-(2-methoxyethyl)pyrimidin-4-yl]-3-methyl-piperazin-1-yl]ethyl]cyclobutyl]formamide] | < 50 | + (+>10) | + (+: 20-120 μl min^−1 mg^−1) | + (+: 20-120 μl min^−1 mg^−1)
17 | COCCc1cc(N2CCN(CC[C@H]3CC[C@H](NC=O)CC3)[C@H](C)C2)nc(C(C)(C)C)n1 [Compound 24, trans-N-[4-[2-[(2R)-4-[2-tert-butyl-6-(2-methoxyethyl)pyrimidin-4-yl]-2-methyl-piperazin-1-yl]ethyl]cyclohexyl]formamide] | < 50 | +++ (+++>50) | + (+: 20-120 μl min^−1 mg^−1) | + (+: 20-120 μl min^−1 mg^−1)
